Measured values: US20250127787A1, “METHODS FOR TREATING PERIPHERAL NEUROPATHY” (University of Pittsburgh - Of the Commonwealth System of …, priority 2021, published 2025)
“Also recorded” adds a separate entry of the source.

Experiments:
mitofusin 2 (MFN2) = experiment: MFN2 expression in CYP-CIPN rat hindpaw epidermis, Western immunoblotting; type: in vivo; settings: 8-AG 5 mg/kg/day in drinking water
Procedure: (§1) Animals. This study employed female Harlan Sprague Dawley (HSD) rats (3-4 mo; Envigo, Indianapolis, IN) and were divided into the following groups: 1) Control, 2) Cyclophosphamide (CYP, 75 mg/kg i.p. in saline vehicle; administered on days 0, 3 and 6); 3) 8-aminoguanine (8-AG; 5 mg/kg/day in drinking water; beginning 2 weeks prior to CYP and continuing until sacrifice (day 8)). The dose of 8-AG is based on our preliminary and published experiments. […] The investigation conforms to the Guide for the Care and Use of Laboratory Animals published by the US National Institutes of Health (NIH Publication No. 85-23, revised 1996). […]
(§2) Western immunoblotting: Following the testing paradigms, rats were deeply anesthetized and tissues (e.g., epidermis, peripheral sciatic nerves, spinal cord segments (L3-L5) and dorsal root ganglia (L3-L5) were removed, and a portion of each preparation was homogenized using Lysing Matrix D in a FASTPREP® 24 instrument (MP Biomedicals, Solon, OH) in HBSS [5 mM KCl, 0.3 mM KH2PO4, 138 mM NaCl, 4 mM NaHO3, 0.3 mM Na2HCO3, 0.3 mM Na2HPO4, 5.6 mM glucose and 10 mM Hepes, pH 7.4 containing complete protease inhibitor cocktail (1 tablet/10 ml, Roche, Indianapolis, IN)] and phosphatase inhibitor cocktail (Sigma, 1:100). […] The protein concentrations of the supernatants were determined using the Pierce BCA protein assay (Thermo Scientific, Rockford, IL). […]

protein carbonylation = experiment: Protein carbonylation in CYP-CIPN rat hindpaw epidermis; type: in vivo; settings: 8-AG 5 mg/kg/day in drinking water
Procedure: as §1, §2

CYP—CIPN rats = experiment: Von Frey sensory testing in CYP-CIPN rats; type: in vivo, rat; settings: hindpaw, 8-AG 5 mg/kg/day in drinking water
Procedure: Animals. This study employed female Harlan Sprague Dawley (HSD) rats (3-4 mo; Envigo, Indianapolis, IN) and were divided into the following groups: 1) Control, 2) Cyclophosphamide (CYP, 75 mg/kg i.p. in saline vehicle; administered on days 0, 3 and 6); 3) 8-aminoguanine (8-AG; 5 mg/kg/day in drinking water; beginning 2 weeks prior to CYP and continuing until sacrifice (day 8)). The dose of 8-AG is based on our preliminary and published experiments. […] The investigation conforms to the Guide for the Care and Use of Laboratory Animals published by the US National Institutes of Health (NIH Publication No. 85-23, revised 1996). In addition, all tissues (dorsal root ganglion, spinal cord, peripheral nerves and hindpaw epidermis) were removed from isoflurane anesthetized rats and the tissue was used for various experimental approaches as described below. At the end of tissue removal, animals were sacrificed by thoracotomy.
Control, CYP and 8-AG-treated CYP rats were placed in an elevated chamber on a wire mesh floor and after acclimatization, calibrated von Frey microfilaments were applied to determine paw withdrawal threshold (PWT, in grams). Briefly, microfilaments (Stoelting Corp, USA) are applied with different forces perpendicularly to the plantar surface of both ipsilateral and contralateral hindpaw by increasing and decreasing stimulus intensity. […]

PNPase = PNPase (Rattus norvegicus, UniProt P85973); settings: single bolus 5 mg/kg
Chain of PNPase (P85973 whole entry): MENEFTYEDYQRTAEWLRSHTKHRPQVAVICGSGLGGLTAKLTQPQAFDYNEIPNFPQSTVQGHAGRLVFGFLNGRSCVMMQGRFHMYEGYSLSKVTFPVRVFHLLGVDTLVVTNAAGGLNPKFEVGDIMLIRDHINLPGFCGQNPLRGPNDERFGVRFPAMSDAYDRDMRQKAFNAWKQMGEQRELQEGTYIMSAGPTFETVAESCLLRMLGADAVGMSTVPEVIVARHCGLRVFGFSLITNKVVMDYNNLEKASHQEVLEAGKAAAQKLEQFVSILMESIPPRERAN
Procedure: Rats were anesthetized with urethane (Sigma-Aldrich, St. Louis, MO) at 1.2 g/kg. A continuous infusion of 0.9% sterile saline at 25 ul/min was established via a catheter inserted into the jugular vein. A second catheter to the carotid artery was established in order to collect blood samples (200 μl) which were drawn into a 1 ml syringe prefilled with 50 U heparin. Blood samples were centrifuged at 1300 g for 10 minutes and supernatant (plasma) was then quickly frozen on dry ice and stored at −80° C. until assay. Urine samples were collected by a urethral catheter, centrifuged at 416 g for 10 minutes to remove sediment, and stored as above. Baseline blood samples and urine samples were collected followed by a single bolus of 8-aminoguanine (8-AG, 5 mg/kg) administered through the jugular catheter. Blood samples were collected after 15, 30, 60, 120 and 240 minutes. Urine samples were collected at 1, 2, 4 and 6 hours.
Purines in urine were measured by mass spectrometry using multiple reaction monitoring. Blood samples were diluted 1 to 30 with water, and heavy isotope internal standards were added to each sample. Purines were separated by reversed-phase ultra-performance liquid chromatography (Waters UPLC BEH C18 column, 1.7 μm beads; 2.1×150 mm; Milford, MA) and quantified by multiple reaction monitoring using a triple quadrupole mass spectrometer (TSQ Quantum-Ultra; ThermoFisher Scientific, San Jose, CA) with a heated electrospray ionization source. The mobile phase was a linear gradient flow rate (300 uL/min) of 1% acetic acid in water (pH, 3; mobile phase A) and 100% methanol (mobile phase B), and was delivered with a Waters Acquity ultra-performance liquid chromatographic system. The gradient (A/B) settings were: from 0 to 2 minutes, 99.6%/0.4%; from 2 to 3 minutes, to 98.0%/2.0%; from 3 to 4 minutes, to 85.0%/15.0%; from 4 to 6.5 minutes, to 99.6%/0.4%. The instrument parameters were: sample tray temperature, 10° C.; column temperature, 50° C.; ion spray voltage, 4.0 kilovolts; ion transfer tube temperature, 350° C.; source vaporization temperature, 320° C.; Q2 CID gas, argon at 1.5 mTorr; sheath gas, nitrogen at 60 psi; auxillary gas, nitrogen at 35 psi; Q1/Q3 width, 0.7/0.7 units full-width half-maximum; scan width, 0.6 units; scan time, 0.01 seconds. The following transitions (multiple reaction monitoring) were obtained: guanosine (284→152; RT=2.94 min); ^13C10, ^15N5-guanosine (299→162, RT=2.94 min); guanine (152→135; RT=1.48 min); ^13C2, ^15N-guanine (155→138, RT=1.48 min); hypoxanthine (137→119 m/z, RT=1.86 min); ^13C5-hypoxanthine (142→124 m/z, RT=1.86 min); aminoguanine (167→150 m/z, RT=1.50 min); ^13C2^15N-aminoguanine (170→153 m/z, RT=1.50 min).

Structure (SMILES): Nc1nc2[nH]c(N)nc2c(=O)[nH]1 [8-AG, 8-Aminoguanine]
- effect on CYP-induced decrease in MFN2 expression (mitofusin 2 (MFN2)): reversed
- effect on CYP-induced protein carbonylation (protein carbonylation): completely prevents; also recorded: restored values to that of a control state
- effect on CYP-induced increase in sensitivity to mechanical stimuli (paw withdrawal threshold) (CYP—CIPN rats): restored to control values; also recorded: normalizes; also recorded: normalized to control conditions
- duration of sustained reduction in the ratio of urine guanosine to urine guanine (PNPase; rat urine): > 6 h
- duration of sustained reduction in urine levels of hypoxanthine (PNPase; rat urine): > 6 h
- hypoxanthine levels in the urine (PNPase; rat urine): decrease
- duration of sustained inhibition of PNPase following a bolus dose (PNPase; rat): > 6 h
